Test results reported in US8119563B2, “N-substituted azacycles” (FMC Corporation, priority 2003, dated 2012).

System: tobacco budworm (Heliothis virescens [Fabricius])
Test: surface-treated diet test, insecticidal activity against tobacco budworm
Format: in vivo
Parameters: mortality: concentration or dose not given beside the values
Details: 0.25 millimoles of candidate insecticide on the surface of the diet, second instar larvae, five-day exposure
Method: Candidate insecticides were evaluated for activity against the tobacco budworm (Heliothis virescens [Fabricius]) in a surface-treated diet test.
In this test one mL of molten (65-70° C.) wheat germ-based artificial diet was pipetted into each well of a four by six (24 well) multi-well plate (ID# 430345-15.5 mm dia.×17.6 mm deep; Corning Costar Corp., One Alewife Center, Cambridge, Mass. 02140). The diet was allowed to cool to ambient temperature before treatment with candidate insecticide.
For a determination of insecticidal activity, solutions of the candidate insecticides were prepared for testing using a Packard 204DT Multiprobe® Robotic System (Packard Instrument Company, 800 Research Parkway, Meriden, Conn. 06450), in which the robot first diluted a standard 50 millimolar DMSO solution of candidate insecticide with a 1:1 water/acetone solution (V/V) in a ratio of 1:7 stock solution to water/acetone. The robot subsequently pipetted 40 microliters of the so-prepared solution onto the surface of the diet in each of three wells in the 24 multi-well plate. The process was repeated with solutions of seven other candidate insecticides. Once treated, the contents of the multi-well plate were allowed to dry, leaving 0.25 millimoles of candidate insecticide on the surface of the diet, or a concentration of 0.25 millimolar. Appropriate untreated controls containing only DMSO on the diet surface were also included in this test.
For evaluations of the insecticidal activity of a candidate insecticide at varying rates of application, the test was established as described above using sub-multiples of the standard 50 millimolar DMSO solution of candidate insecticide. For example, the standard 50 millimolar solution was diluted by the robot with DMSO to give 5, 0.5, 0.05, 0.005, 0.0005 millimolar, or more dilute solutions of the candidate insecticide. In these evaluations there were six replicates of each rate of application placed on the surface of the diet in the 24 multi-well plate, for a total of four rates of application of candidate insecticide in each plate.
In each well of the test plate was placed one second instar tobacco budworm larvea, each weighing approximately five milligrams. After the larvae were placed in each well, the plate was sealed with clear polyfilm adhesive tape. The tape over each well was perforated to ensure an adequate air supply. The plates were then held in a growth chamber at 25° C. and 60% relative humidity for five days (light 14 hours/day).
After the five-day exposure period insecticidal activity for each rate of application of candidate insecticide was assessed as percent inhibition of insect weight relative to the weight of insects from untreated controls, and percent mortality when compared to the total number of insects infested.
The test compounds of formula I are identified by numbers that correspond to those in Table 1.

[1] = compared to total number of insects infested
[2] = inhibition of insect weight relative to untreated controls

SMILES | Percent Mortality [1] [%] | Percent Growth Inhibition [2] [%] | mortality (Heliothis virescens, 120 h, compared to total number of insects infested, read-out: Percent Mortality) [%] | pest or weed control at 0.25 mmol/well (Heliothis virescens, 120 h, inhibition of insect weight relative to untreated controls, read-out: Percent Growth Inhibition) [%]
Cc1cccnc1Oc1ccc(CN2CCC(O)(C(c3ccc(OC(F)(F)F)cc3)c3ccc(OC(F)(F)F)cc3)CC2)cc1 [Compound 271] | 100 | 100 | – | –
Cc1ccc(Oc2ccc(CN3CCC(O)(C(c4ccc(OC(F)(F)F)cc4)c4ccc(OC(F)(F)F)cc4)CC3)cc2)nc1 [Compound 272] | 100 | 100 | – | –
CCOC(OCC)c1ccc(CN2CCC(O)(C(c3ccc(OC(F)(F)F)cc3)c3ccc(OC(F)(F)F)cc3)CC2)cc1 [Compound 273] | 100 | 100 | – | –
COc1ccc(Oc2ccc(CN3CCC(O)(C(c4ccc(OC(F)(F)F)cc4)c4ccc(OC(F)(F)F)cc4)CC3)cc2)nn1 [Compound 274] | 100 | 100 | – | –
N#CCON=Cc1ccc(CN2CCC(O)(C(c3ccc(OC(F)(F)F)cc3)c3ccc(OC(F)(F)F)cc3)CC2)cc1 [Compound 275] | 100 | 100 | – | –
Cc1cccc(Oc2ccc(CN3CCC(O)(C(c4ccc(OC(F)(F)F)cc4)c4ccc(OC(F)(F)F)cc4)CC3)cc2)n1 [Compound 276] | 100 | 100 | – | –
CON=C(Cl)c1ccc(CN2CCC(O)(C(c3ccc(OC(F)(F)F)cc3)c3ccc(OC(F)(F)F)cc3)CC2)cc1 [Compound 277] | 100 | 100 | – | –
CCOC(=O)COc1ccc(CN2CCC(O)(C(c3ccc(OC(F)(F)F)cc3)c3ccc(OC(F)(F)F)cc3)CC2)cc1 [Compound 279] | 83 | 100 | – | –
CC1(C)COC(c2ccc(CN3CCC(O)(C(c4ccc(OC(F)(F)F)cc4)c4ccc(OC(F)(F)F)cc4)CC3)cc2)OC1 [Compound 280] | 100 | 100 | – | –
N#Cc1cccnc1Oc1ccc(CN2CCC(O)(C(c3ccc(OC(F)(F)F)cc3)c3ccc(OC(F)(F)F)cc3)CC2)cc1 [Compound 281] | 100 | 100 | – | –
N#Cc1ccc(Oc2ccc(CN3CCC(O)(C(c4ccc(OC(F)(F)F)cc4)c4ccc(OC(F)(F)F)cc4)CC3)cc2)nc1 [Compound 283] | 100 | 100 | – | –
CONC(=O)c1ccc(CN2CCC(O)(C(c3ccc(OC(F)(F)F)cc3)c3ccc(OC(F)(F)F)cc3)CC2)cc1 [Compound 285] | 100 | 100 | – | –
OC1(C(c2ccc(OC(F)(F)F)cc2)c2ccc(OC(F)(F)F)cc2)CCN(Cc2ccc(Oc3cccc(Cl)c3)cc2)CC1 [Compound 286] | 100 | 100 | – | –
OC1(C(c2ccc(OC(F)(F)F)cc2)c2ccc(OC(F)(F)F)cc2)CCN(Cc2ccc(Oc3ccc(Cl)cc3)cc2)CC1 [Compound 290] | 100 | 100 | – | –
CCOC(=O)COc1ccc(CN2CCC(O)(C(c3ccc(C(F)(F)F)cc3)c3ccc(C(F)(F)F)cc3)CC2)cc1 [Compound 291] | 17 | 100 | – | –
OC1(C(c2ccc(OC(F)(F)F)cc2)c2ccc(OC(F)(F)F)cc2)CCN(Cc2ccc(C3OCCCO3)cc2)CC1 [Compound 292] | 100 | 100 | – | –
OC1(C(c2ccc(OC(F)(F)F)cc2)c2ccc(OC(F)(F)F)cc2)CCN(Cc2ccc(OCC=C(Cl)Cl)cc2)CC1 [Compound 293] | 100 | 100 | – | –
OC1(C(c2ccc(OC(F)(F)F)cc2)c2ccc(OC(F)(F)F)cc2)CCN(Cc2ccc(Oc3ccccc3Cl)cc2)CC1 [Compound 297] | 100 | 100 | – | –
O=C(NC1CC1)Oc1ccc(CN2CCC(O)(C(c3ccc(OC(F)(F)F)cc3)c3ccc(OC(F)(F)F)cc3)CC2)cc1 [Compound 298] | 100 | 100 | – | –

SMILES | Percent Mortality [1] [%] | Percent Growth Inhibition [2] [%] | mortality (Heliothis virescens, 120 h, compared to total number of insects infested, read-out: Percent Mortality) [%] | pest or weed control at 0.25 mmol/well (Heliothis virescens, 120 h, inhibition of insect weight relative to untreated controls, read-out: Percent Growth Inhibition) [%]
OC1(C(c2ccc(C(F)(F)F)cc2)c2ccc(C(F)(F)F)cc2)CCN(Cc2ccc(OCC3CC3)cc2)CC1 [Compound 299] | 100 | 100 | – | –
CCCNC(=O)Oc1ccc(CN2CCC(O)(C(c3ccc(OC(F)(F)F)cc3)c3ccc(OC(F)(F)F)cc3)CC2)cc1 [Compound 300] | 100 | 100 | – | –
OC1(C(c2ccc(OC(F)(F)F)cc2)c2ccc(OC(F)(F)F)cc2)CCN(Cc2ccc(C=NOCC(F)(F)F)cc2)CC1 [Compound 301] | 100 | 100 | – | –
Oc1ccc(CN2CCC(O)(C(c3ccc(C(F)(F)F)cc3)c3ccc(C(F)(F)F)cc3)CC2)cc1 [Compound 302] | 17 | 100 | – | –
CC(C)Oc1ccc(CN2CCC(O)(C(c3ccc(C(F)(F)F)cc3)c3ccc(C(F)(F)F)cc3)CC2)cc1 [Compound 303] | 100 | 100 | – | –
OC1(C(c2ccc(OC(F)(F)F)cc2)c2ccc(OC(F)(F)F)cc2)CCN(Cc2ccc(OCc3ccccc3)cc2)CC1 [Compound 304] | 100 | 100 | – | –
CC(C)=CCCC(C)=CCON=Cc1ccc(CN2CCC(O)(C(c3ccc(OC(F)(F)F)cc3)c3ccc(OC(F)(F)F)cc3)CC2)cc1 [Compound 305] | 0 | 31 | – | –
OC1(C(c2ccc(OC(F)(F)C(F)C(F)(F)F)cc2)c2ccc(OC(F)(F)C(F)C(F)(F)F)cc2)CCN(Cc2ccc(Oc3ncccn3)cc2)CC1 (stereo not shown) [Compound 306] | 100 | 100 | – | –
OC1(C(c2ccc(C(F)(F)F)cc2)c2ccc(C(F)(F)F)cc2)CCN(Cc2ccc(Oc3ccc(Cl)nn3)cc2)CC1 [Compound 307] | 100 | 100 | – | –
COCCOc1ccc(CN2CCC(O)(C(c3ccc(OC(F)(F)F)cc3)c3ccc(OC(F)(F)F)cc3)CC2)cc1 [Compound 308, 4-{bis[4-(trifluoromethoxy)phenyl]methyl}-1-{[4-(2-methoxyethoxy)phenyl]methyl}piperidin-4-ol] | – | – | 100 | 100
OC1(C(c2ccc(OC(F)(F)F)cc2)c2ccc(OC(F)(F)F)cc2)CCN(Cc2ccc(-c3ccccn3)cc2)CC1 [Compound 309] | 100 | 100 | – | –
CCCOC(=O)Nc1ccc(CN2CCC(O)(C(c3ccc(OC(F)(F)F)cc3)c3ccc(OC(F)(F)F)cc3)CC2)cc1 [Compound 310] | 100 | 100 | – | –
CC(C)(C)NC(=O)Oc1ccc(CN2CCC(O)(C(c3ccc(OC(F)(F)F)cc3)c3ccc(OC(F)(F)F)cc3)CC2)cc1 [Compound 311] | 100 | 100 | – | –
OC1(C(c2ccc(OC(F)(F)F)cc2)c2ccc(OC(F)(F)F)cc2)CCN(Cc2ccc(C=NOCCF)cc2)CC1 [Compound 312] | 100 | 100 | – | –
CCCOC(=O)Nc1ccc(CN2CCC(O)(C(c3ccc(C(F)(F)F)cc3)c3ccc(C(F)(F)F)cc3)CC2)cc1 [Compound 313] | 100 | 100 | – | –
OC1(C(c2ccc(OC(F)(F)F)cc2)c2ccc(OC(F)(F)F)cc2)CCN(Cc2ccc(OCC3CC3)cc2)CC1 [Compound 315] | 100 | 100 | – | –
OC1(C(c2ccc(C(F)(F)F)cc2)c2ccc(C(F)(F)F)cc2)CCN(Cc2ccc(OCc3ccccc3)cc2)CC1 [Compound 316] | 67 | 100 | – | –
CCOC(=O)CNC(=O)Oc1ccc(CN2CCC(O)(C(c3ccc(OC(F)(F)F)cc3)c3ccc(OC(F)(F)F)cc3)CC2)cc1 [Compound 317] | 100 | 100 | – | –
O=C(Nc1ccc(CN2CCC(O)(C(c3ccc(C(F)(F)F)cc3)c3ccc(C(F)(F)F)cc3)CC2)cc1)OCC1CC1 [Compound 319] | 100 | 100 | – | –
